Several values for one entry are separate records, joined by “and”; a condition that tells them apart may be missing. Equal values may be shown once. One block for each molecule: values may come before it.
Experiment: Henry solubility constant Hcp at 298.15 K (mol/(m3 Pa))
Details: reference: Lau et al. (2006)

Compound: Brc1ccc(Oc2cc(Br)c(Br)cc2Br)c(Br)c1 [2,2',4,4',5-pentabromodiphenyl ether]
Henry solubility constant Hcp: 0.62 and 0.33

Compound: Brc1ccc(Oc2ccccc2)cc1 [4-bromodiphenyl ether]
Henry solubility constant Hcp: 0.05 and 0.043

Compound: Clc1ccc(-c2ccc(Cl)c(Cl)c2)cc1Cl [3,3',4,4'-tetrachlorobiphenyl]
Henry solubility constant Hcp: 0.031 and 0.018

Compound: Clc1ccc(-c2ccc(Cl)cc2)cc1 [4,4'-dichlorobiphenyl]
Henry solubility constant Hcp: 0.05 and 0.033

Compound: Clc1ccc(-c2cc(Cl)c(Cl)cc2Cl)cc1Cl [2,3',4,4',5-pentachlorobiphenyl]
Henry solubility constant Hcp: 0.011 and 0.0056

Compound: Brc1ccc(Oc2c(Br)cc(Br)cc2Br)c(Br)c1 [2,2',4,4',6-pentabromodiphenyl ether]
Henry solubility constant Hcp: 0.33 and 0.32

Compound: Brc1ccc(Oc2ccc(Br)cc2)cc1 [4,4'-dibromodiphenyl ether]
Henry solubility constant Hcp: 0.083 and 0.071

Compound: Brc1ccc(Oc2ccc(Br)cc2Br)cc1 [2,4,4'-tribromodiphenyl ether]
Henry solubility constant Hcp: 0.11 and 0.077

Compound: Clc1ccccc1-c1ccccc1 [2-chlorobiphenyl]
Henry solubility constant Hcp: 0.03 and 0.023

Henry solubility constant Hcp: 0.62 and 0.77
Compound: Brc1ccc(Oc2cc(Br)c(Br)c(Br)c2Br)cc1 [2,3,4,4',5-pentabromodiphenyl ether]

Compound: Brc1ccc(Oc2ccc(Br)cc2Br)c(Br)c1 [2,2',4,4'-tetrabromodiphenyl ether]
Henry solubility constant Hcp: 0.16 and 0.17

Compound: Clc1ccc(-c2ccccc2Cl)cc1 [2,4'-dichlorobiphenyl]
Henry solubility constant Hcp: 0.026 and 0.019

Reference: Sander's compilation of Henry's law constants (doi:10.1021/je050308b)
